# Laboratory results published in ChEMBL document CHEMBL1201862, “PubChem BioAssay data set” (2004).
#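 Growth conditions: 96-well plates. Treatment: test compound, 48 hours, 5 concentrations. Analysis: linear interpolation between bracketing concentrations; unreached endpoints set to highest concentration. The concentration for 50% growth inhibition is given as GI50.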 Active and inactive are the calls of the source. Rule as the data show it: active = GI50 up to about 1.1 µM and inactive = higher.
# What was measured:
# Assay in all cases: NCI tumour cell line growth inhibition, 48 h
# 786-0 = system: 786-0
# A498 = system: A498
# A549 = system: A549
# ACHN = system: ACHN
# CCRF-CEM = system: CCRF-CEM
# COLO 205 = system: COLO 205
# DLD-1 = system: DLD-1
# DMS-114 = system: DMS-114
# DMS-273 = system: DMS-273
# EKVX = system: EKVX
# HCT-116 = system: HCT-116
# HCT-15 = system: HCT-15
# HL-60 = system: HL-60
# HOP-18 = system: HOP-18
# HOP-62 = system: HOP-62
# HOP-92 = system: HOP-92
# HT-29 = system: HT-29
# IGROV-1 = system: IGROV-1
# K562 = system: K562
# KM-20L2 = system: KM-20L2
# LOX IMVI = system: LOX IMVI
# LXFL 529 = system: LXFL 529
# M14 = system: M14
# M19-MEL = system: M19-MEL
# MOLT-4 = system: MOLT-4
# Malme-3M = system: Malme-3M
# NCI-H226 = system: NCI-H226
# NCI-H23 = system: NCI-H23
# NCI-H460 = system: NCI-H460
# NCI-H522 = system: NCI-H522
# OVCAR-3 = system: OVCAR-3
# OVCAR-4 = system: OVCAR-4
# OVCAR-5 = system: OVCAR-5
# OVCAR-8 = system: OVCAR-8
# RPMI-8226 = system: RPMI-8226
# RXF 393 = system: RXF 393
# RXF 631 = system: RXF 631
# SF-268 = system: SF-268
# SF-295 = system: SF-295
# SF-539 = system: SF-539
# SK-MEL-28 = system: SK-MEL-28
# SK-MEL-2 = system: SK-MEL-2
# SK-OV-3 = system: SK-OV-3
# SN12C = system: SN12C
# SNB-19 = system: SNB-19
# SNB-75 = system: SNB-75
# SW-620 = system: SW-620
# TK-10 = system: TK-10
# U-251 = system: U-251
# UACC-257 = system: UACC-257
# UACC-62 = system: UACC-62
# UO-31 = system: UO-31
# XF498 = system: XF498
# CAKI-1 = system: CAKI-1
# HCC 2998 = system: HCC 2998
# KM12 = system: KM12
# SK-MEL-5 = system: SK-MEL-5
# SNB-78 = system: SNB-78
# SR = system: SR
structure (smiles),measurement,setting,value
CCC1(CC)C(=O)NC(=S)N=C1N,GI50,786-0,> 100 µM (inactive)
same,GI50,A498,> 100 µM (inactive)
same,GI50,A549,> 100 µM (inactive)
same,GI50,ACHN,> 100 µM (inactive)
same,GI50,CCRF-CEM,> 100 µM (inactive)
same,GI50,COLO 205,> 100 µM (inactive)
same,GI50,DLD-1,> 100 µM (inactive)
same,GI50,DMS-114,> 100 µM (inactive)
same,GI50,DMS-273,> 100 µM (inactive)
same,GI50,EKVX,> 100 µM (inactive)
same,GI50,HCT-116,> 100 µM (inactive)
same,GI50,HCT-15,> 100 µM
same,GI50,HL-60,> 100 µM (inactive)
same,GI50,HOP-18,> 100 µM (inactive)
same,GI50,HOP-62,> 100 µM (inactive)
same,GI50,HOP-92,> 100 µM (inactive)
same,GI50,HT-29,> 100 µM (inactive)
same,GI50,IGROV-1,> 100 µM (inactive)
same,GI50,K562,> 100 µM (inactive)
same,GI50,KM-20L2,> 100 µM (inactive)
same,GI50,LOX IMVI,> 100 µM (inactive)
same,GI50,LXFL 529,> 100 µM (inactive)
same,GI50,M14,> 100 µM (inactive)
same,GI50,M19-MEL,> 100 µM (inactive)
same,GI50,MOLT-4,> 100 µM (inactive)
same,GI50,Malme-3M,> 100 µM (inactive)
same,GI50,NCI-H226,> 100 µM (inactive)
same,GI50,NCI-H23,> 100 µM (inactive)
same,GI50,NCI-H460,> 100 µM (inactive)
same,GI50,NCI-H522,> 100 µM (inactive)
same,GI50,OVCAR-3,> 100 µM (inactive)
same,GI50,OVCAR-4,> 100 µM (inactive)
same,GI50,OVCAR-5,> 100 µM (inactive)
same,GI50,OVCAR-8,> 100 µM (inactive)
same,GI50,RPMI-8226,> 100 µM (inactive)
same,GI50,RXF 393,> 100 µM (inactive)
same,GI50,RXF 631,> 100 µM (inactive)
same,GI50,SF-268,> 100 µM (inactive)
same,GI50,SF-295,> 100 µM (inactive)
same,GI50,SF-539,> 100 µM (inactive)
same,GI50,SK-MEL-28,> 100 µM (inactive)
same,GI50,SK-MEL-2,> 100 µM (inactive)
same,GI50,SK-OV-3,> 100 µM (inactive)
same,GI50,SN12C,> 100 µM (inactive)
same,GI50,SNB-19,> 100 µM (inactive)
same,GI50,SNB-75,57 µM (inactive)
same,GI50,SW-620,> 100 µM (inactive)
same,GI50,TK-10,> 100 µM (inactive)
same,GI50,U-251,> 100 µM (inactive)
same,GI50,UACC-257,> 100 µM (inactive)
same,GI50,UACC-62,> 100 µM (inactive)
same,GI50,UO-31,> 100 µM (inactive)
same,GI50,XF498,> 100 µM (inactive)
COC(=O)C(=O)C(C(=O)C(=O)Nc1ccc(C)cc1C)c1nc2ccccc2nc1O (configuration not stated),GI50,786-0,77.4 µM (inactive)
same,GI50,A498,19.5 µM (inactive)
same,GI50,A549,31.7 µM (inactive)
same,GI50,ACHN,50 µM (inactive)
same,GI50,CAKI-1,21.3 µM (inactive)
same,GI50,CCRF-CEM,4.99 µM (inactive)
same,GI50,COLO 205,79.3 µM (inactive)
same,GI50,DLD-1,50.7 µM (inactive)
same,GI50,EKVX,17.9 µM (inactive)
same,GI50,HCC 2998,67.3 µM (inactive)
same,GI50,HCT-116,63 µM (inactive)
same,GI50,HCT-15,31.6 µM
same,GI50,HL-60,41.8 µM (inactive)
same,GI50,HOP-18,36 µM (inactive)
same,GI50,HOP-62,39.4 µM (inactive)
same,GI50,HT-29,> 100 µM (inactive)
same,GI50,IGROV-1,32.5 µM (inactive)
same,GI50,K562,42.5 µM (inactive)
same,GI50,KM-20L2,> 100 µM (inactive)
same,GI50,KM12,64.3 µM (inactive)
same,GI50,LOX IMVI,47 µM (inactive)
same,GI50,LXFL 529,43.9 µM (inactive)
same,GI50,M14,54.8 µM (inactive)
same,GI50,M19-MEL,> 100 µM (inactive)
same,GI50,MOLT-4,32.4 µM (inactive)
same,GI50,Malme-3M,57.4 µM (inactive)
same,GI50,NCI-H226,37.4 µM (inactive)
same,GI50,NCI-H23,66.8 µM (inactive)
same,GI50,NCI-H460,85.5 µM (inactive)
same,GI50,NCI-H522,25 µM (inactive)
same,GI50,OVCAR-3,32.7 µM (inactive)
same,GI50,OVCAR-4,> 100 µM (inactive)
same,GI50,OVCAR-5,30.9 µM (inactive)
same,GI50,OVCAR-8,37.7 µM (inactive)
same,GI50,RPMI-8226,35 µM (inactive)
same,GI50,RXF 393,17.8 µM (inactive)
same,GI50,RXF 631,46.7 µM (inactive)
same,GI50,SF-268,99.1 µM (inactive)
same,GI50,SF-295,> 100 µM (inactive)
same,GI50,SF-539,36.6 µM (inactive)
same,GI50,SK-MEL-28,51.9 µM (inactive)
same,GI50,SK-MEL-2,54.3 µM (inactive)
same,GI50,SK-MEL-5,58.1 µM (inactive)
same,GI50,SK-OV-3,40.1 µM (inactive)
same,GI50,SN12C,41.6 µM (inactive)
same,GI50,SNB-19,> 100 µM (inactive)
same,GI50,SNB-75,15 µM (inactive)
same,GI50,SNB-78,41.6 µM (inactive)
same,GI50,SR,35.8 µM (inactive)
same,GI50,SW-620,> 100 µM (inactive)
same,GI50,TK-10,22.1 µM (inactive)
same,GI50,U-251,57.1 µM (inactive)
same,GI50,UACC-257,58.7 µM (inactive)
same,GI50,UACC-62,37.1 µM (inactive)
same,GI50,UO-31,30.9 µM (inactive)
same,GI50,XF498,58.3 µM (inactive)
CC[C@H]1[C@@H](C)C=C[C@@H](C)N1S(=O)(=O)c1ccc(C)cc1,GI50,786-0,> 100 µM (inactive)
same,GI50,A498,> 100 µM (inactive)
same,GI50,A549,> 100 µM (inactive)
same,GI50,ACHN,67 µM (inactive)
same,GI50,CAKI-1,> 100 µM (inactive)
same,GI50,CCRF-CEM,> 100 µM (inactive)
same,GI50,COLO 205,> 100 µM (inactive)
same,GI50,DMS-114,19.1 µM (inactive)
same,GI50,DMS-273,> 100 µM (inactive)
same,GI50,EKVX,> 100 µM (inactive)
same,GI50,HCT-116,51.6 µM (inactive)
same,GI50,HCT-15,61.2 µM
same,GI50,HL-60,18.5 µM (inactive)
same,GI50,HOP-62,> 100 µM (inactive)
same,GI50,HT-29,> 100 µM (inactive)
same,GI50,K562,89.9 µM (inactive)
same,GI50,KM-20L2,> 100 µM (inactive)
same,GI50,KM12,> 100 µM (inactive)
same,GI50,LOX IMVI,> 100 µM (inactive)
same,GI50,LXFL 529,73.8 µM (inactive)
same,GI50,M14,> 100 µM (inactive)
same,GI50,M19-MEL,> 100 µM (inactive)
same,GI50,MOLT-4,79.3 µM (inactive)
same,GI50,Malme-3M,> 100 µM (inactive)
same,GI50,NCI-H226,> 100 µM (inactive)
same,GI50,NCI-H23,> 100 µM (inactive)
same,GI50,NCI-H460,> 10 µM (inactive)
same,GI50,NCI-H522,30.3 µM (inactive)
same,GI50,OVCAR-3,> 100 µM (inactive)
same,GI50,OVCAR-4,> 100 µM (inactive)
same,GI50,OVCAR-5,> 100 µM (inactive)
same,GI50,OVCAR-8,> 100 µM (inactive)
same,GI50,RPMI-8226,34.1 µM (inactive)
same,GI50,RXF 393,48.6 µM (inactive)
same,GI50,RXF 631,16.7 µM (inactive)
same,GI50,SF-268,75 µM (inactive)
same,GI50,SF-295,95.9 µM (inactive)
same,GI50,SF-539,> 100 µM (inactive)
same,GI50,SK-MEL-28,> 100 µM (inactive)
same,GI50,SK-MEL-2,19.8 µM (inactive)
same,GI50,SK-MEL-5,92 µM (inactive)
same,GI50,SK-OV-3,> 100 µM (inactive)
same,GI50,SN12C,92.7 µM (inactive)
same,GI50,SNB-19,0.693 µM (active)
same,GI50,SNB-75,> 100 µM (inactive)
same,GI50,SNB-78,> 100 µM (inactive)
same,GI50,SR,66.5 µM (inactive)
same,GI50,SW-620,> 100 µM (inactive)
same,GI50,U-251,> 100 µM (inactive)
same,GI50,UACC-257,> 100 µM (inactive)
same,GI50,UACC-62,97.7 µM (inactive)
same,GI50,UO-31,5.26 µM (inactive)
same,GI50,XF498,14.1 µM (inactive)
